Measurements: publication PMC9730446 (Science translational medicine, 2022)

Key:
KOPT-K1 cells [1] = assay: In vitro drug wash-out assay, cell growth; type: cell-based; conditions: 100nM for 18 hours, then drug-free media
[2] = Cytotoxicity in peripheral blood mononuclear cells; conditions: human, peripheral blood mononuclear cells (PBMCs)
KOPT-K1 cells [3] = type: cell-based
[4] = Cytotoxicity in CD34+ cells from healthy donors; conditions: human, CD34+ cells from cord blood of healthy donors
in vivo = conditions: NSG, mouse, plasma, ip, 10 mg/kg

Row | AUC (in vivo) | half-life (in vivo) | SMILES | time post drug removal at which cells began to recover (KOPT-K1 cells [1]) | CC50 at 72 h [2] | effect of lenalidomide on LC50 (KOPT-K1 cells [3]) | effect of CRBN deletion (CRBN^KO) on cell sensitivity (KOPT-K1 cells [3]; CRBN^KO vs CRBN^WT KOPT-K1, 72 hours) | CC50 at 72 h [4] | effect on T-ALL survival and growth (KOPT-K1 cells [3]; single agent)
1 | 1400 ng·h/mL | 55.2 min | Cc1nc(Nc2ncc(C(=O)Nc3c(C)cccc3Cl)s2)cc(N2CCN(CCO)CC2)n1 [dasatinib] | 96 h | 2.81 nM | did not alter | did not alter cell sensitivity | 92.9 nM | –
2 | – | – | Nc1cccc2c1CN(C1CCC(=O)NC1=O)C2=O (centres unmarked) [lenalidomide] | – | – | – | – | – | no effect
